Values joined by “and” are separate entries in the source; they are usually repeats but may differ in a detail not shown here. Equal values may be shown once. Active and inactive are the calls of the source.
Columns and labels:
[1] = target: Protein disulfide-isomerase (Homo sapiens, UniProt P07237); assay: PDI inhibitors, insulin turbidity readout, confirmation, biochemical, dry powder samples, set 2 (AID 652146)
Protein Tat = Protein Tat (Human immunodeficiency virus type 1 group M subtype B (isolate HXB2)(HIV-1), UniProt P04608); type: functional;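 note: tat binding to TAR RNA read out by fluorescence polarization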
Protein Tat, sequence (P04608 whole entry): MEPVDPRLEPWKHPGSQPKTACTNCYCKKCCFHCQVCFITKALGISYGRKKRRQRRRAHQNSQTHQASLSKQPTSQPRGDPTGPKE

Caspase-6 = target: T1, Caspase-6 (Homo sapiens, UniProt P55212); assay: human caspase-6 inhibitors, dose response, biochemical, VEID-R110 fluorescence, cherry-pick (AID 720632)
T1 sequence (P55212 whole entry): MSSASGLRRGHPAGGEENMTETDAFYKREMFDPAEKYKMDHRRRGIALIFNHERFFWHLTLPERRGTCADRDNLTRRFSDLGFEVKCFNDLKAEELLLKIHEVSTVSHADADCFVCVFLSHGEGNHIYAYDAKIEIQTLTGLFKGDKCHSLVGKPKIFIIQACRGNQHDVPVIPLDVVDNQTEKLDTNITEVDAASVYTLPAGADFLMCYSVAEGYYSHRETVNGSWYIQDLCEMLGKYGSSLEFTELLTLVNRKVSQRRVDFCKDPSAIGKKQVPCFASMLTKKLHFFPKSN

[2] = target: DNA dC->dU-editing enzyme APOBEC-3G (Homo sapiens, UniProt Q9HC16); type: functional;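 note: Dose-response counterscreen measuring inhibition of APOBEC3G DNA deaminase activity, run while confirming APOBEC3A inhibitors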
DNA dC->dU-editing enzyme APOBEC-3G, sequence (Q9HC16 whole entry): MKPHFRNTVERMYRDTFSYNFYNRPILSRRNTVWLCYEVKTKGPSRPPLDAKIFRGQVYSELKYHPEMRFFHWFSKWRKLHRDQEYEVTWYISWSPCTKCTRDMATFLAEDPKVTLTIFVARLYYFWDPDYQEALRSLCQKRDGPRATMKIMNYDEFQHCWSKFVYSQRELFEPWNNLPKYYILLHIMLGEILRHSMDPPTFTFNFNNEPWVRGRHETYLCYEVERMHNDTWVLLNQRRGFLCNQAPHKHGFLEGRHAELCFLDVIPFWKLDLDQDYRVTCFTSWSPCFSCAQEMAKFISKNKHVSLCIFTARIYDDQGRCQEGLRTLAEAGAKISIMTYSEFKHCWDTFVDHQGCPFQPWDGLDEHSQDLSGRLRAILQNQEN

[3] = target: DNA dC->dU-editing enzyme APOBEC-3A (Homo sapiens, UniProt P31941); assay: Dose Response confirmation of small molecule APOBEC3A DNA Deaminase Inhibitors via a fluorescence-based single-stranded DNA deaminase assay. [Related pubchem assays (depositor defined):AID493011, AID493024]; type: functional
DNA dC->dU-editing enzyme APOBEC-3A, sequence (P31941 whole entry): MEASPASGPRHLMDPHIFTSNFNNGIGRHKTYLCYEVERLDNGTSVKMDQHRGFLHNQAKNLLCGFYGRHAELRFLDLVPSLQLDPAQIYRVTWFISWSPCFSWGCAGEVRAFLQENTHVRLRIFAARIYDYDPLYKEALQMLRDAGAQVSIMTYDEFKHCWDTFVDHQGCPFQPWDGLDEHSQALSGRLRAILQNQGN

Caspase-8 = Caspase-8 (Homo sapiens, UniProt Q14790); assay: caspase-8 inhibition counter-screen, dose response, selectivity assay for caspase-6 inhibitor project, biochemical, Z-IETD-R110 fluorescence, cherry-picked samples (AID 743294)
Caspase-8, sequence (Q14790 217-374 limits assumed): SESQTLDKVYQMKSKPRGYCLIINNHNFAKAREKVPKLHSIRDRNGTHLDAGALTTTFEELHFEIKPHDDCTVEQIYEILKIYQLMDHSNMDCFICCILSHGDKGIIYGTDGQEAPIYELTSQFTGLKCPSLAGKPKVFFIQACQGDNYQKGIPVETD
Caspase-8, sequence (Q14790 385-479 limits assumed): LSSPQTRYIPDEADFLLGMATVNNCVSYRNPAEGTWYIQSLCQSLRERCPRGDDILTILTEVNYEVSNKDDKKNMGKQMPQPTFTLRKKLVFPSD

[4] = THP-1 cell cytotoxicity, dose response, cytotoxicity control for Vif-APOBEC3G degradation inhibitor project, THP-1 cells (AID 1117359); type: functional; conditions: Human immunodeficiency virus 1, THP-1
[5] = target: SWI/SNF-related matrix-associated actin-dependent regulator of chromatin subfamily A member 2 (Homo sapiens, UniProt P51531); assay: Luminescence-based cell-based high throughput dose response assay to identify activators of the function of SWI/SNF related, matrix associated, actin dependent regulator of chromatin, subfamily a, member 2 (SMARCA2, BRM).; type: functional
[6] = Counterscreen for activators of the function of SWI/SNF related, matrix associated, actin dependent regulator of chromatin, subfamily a, member 2 (SMARCA2, BRM): Luminescence-based cell-based high throughput dose response assay to identify non-selective compounds using the VP16 reporter assay.; type: functional
[7] = target: Endoplasmic reticulum aminopeptidase 1 (Homo sapiens, UniProt Q9NZ08); assay: ERAP1 aminopeptidase inhibitors, dose response, biochemical, cherry-pick, set 2, plate reader (AID 743314)
Endoplasmic reticulum aminopeptidase 1, sequence (Q9NZ08 whole entry): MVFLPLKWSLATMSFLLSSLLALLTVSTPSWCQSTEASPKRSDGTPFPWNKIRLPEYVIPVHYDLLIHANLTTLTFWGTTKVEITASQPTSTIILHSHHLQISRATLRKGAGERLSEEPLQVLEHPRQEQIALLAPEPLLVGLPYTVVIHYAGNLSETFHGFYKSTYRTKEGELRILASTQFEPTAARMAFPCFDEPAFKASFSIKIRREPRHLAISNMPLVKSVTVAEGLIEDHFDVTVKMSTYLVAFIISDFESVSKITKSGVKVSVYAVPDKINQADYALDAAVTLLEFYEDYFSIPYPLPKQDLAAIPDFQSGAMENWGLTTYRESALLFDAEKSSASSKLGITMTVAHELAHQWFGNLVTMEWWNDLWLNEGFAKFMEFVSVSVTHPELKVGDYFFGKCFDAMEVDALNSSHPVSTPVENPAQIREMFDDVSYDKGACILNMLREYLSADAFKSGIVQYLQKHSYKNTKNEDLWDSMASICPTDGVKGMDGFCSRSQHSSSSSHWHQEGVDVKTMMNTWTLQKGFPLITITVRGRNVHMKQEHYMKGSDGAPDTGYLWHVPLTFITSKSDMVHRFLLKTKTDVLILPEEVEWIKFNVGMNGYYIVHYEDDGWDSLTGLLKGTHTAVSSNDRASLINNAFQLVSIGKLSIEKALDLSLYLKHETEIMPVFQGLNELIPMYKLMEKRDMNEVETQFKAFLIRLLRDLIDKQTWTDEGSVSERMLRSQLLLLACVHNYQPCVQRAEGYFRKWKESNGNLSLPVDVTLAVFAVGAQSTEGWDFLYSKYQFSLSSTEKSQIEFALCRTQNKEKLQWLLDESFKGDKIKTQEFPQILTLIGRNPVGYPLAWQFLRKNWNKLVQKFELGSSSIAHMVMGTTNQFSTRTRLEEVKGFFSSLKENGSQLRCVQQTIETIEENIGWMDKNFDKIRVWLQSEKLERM

[8] = target: T2, Beta-2 adrenergic receptor (Homo sapiens, UniProt P07550); assay: Dose response for HTS for Beta-2AR agonists via FAP method from Powderset2.; type: functional
T2 sequence (P07550 whole entry): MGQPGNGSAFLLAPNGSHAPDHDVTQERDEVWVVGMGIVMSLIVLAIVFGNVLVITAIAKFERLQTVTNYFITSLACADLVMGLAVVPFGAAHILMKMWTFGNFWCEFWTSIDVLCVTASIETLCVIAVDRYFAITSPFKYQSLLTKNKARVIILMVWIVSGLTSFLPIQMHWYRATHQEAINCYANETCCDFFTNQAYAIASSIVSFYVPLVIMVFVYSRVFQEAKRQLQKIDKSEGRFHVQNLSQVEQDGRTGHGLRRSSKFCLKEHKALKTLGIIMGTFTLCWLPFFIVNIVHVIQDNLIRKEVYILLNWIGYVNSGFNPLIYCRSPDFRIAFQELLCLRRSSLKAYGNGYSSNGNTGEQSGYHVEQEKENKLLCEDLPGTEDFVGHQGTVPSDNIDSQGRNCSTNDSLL

[9] = target: T2, Beta-2 adrenergic receptor; assay: beta2AR agonists driving receptor internalization, dose response, cell-based, FAP fluorogen, flow cytometry, cherry pick 1 (AID 588763); type: functional
fMet-Leu-Phe receptor = fMet-Leu-Phe receptor (Homo sapiens, UniProt P21462); assay: FPR ligands, dose response (AID 519); type: functional
fMet-Leu-Phe receptor, sequence (P21462 whole entry): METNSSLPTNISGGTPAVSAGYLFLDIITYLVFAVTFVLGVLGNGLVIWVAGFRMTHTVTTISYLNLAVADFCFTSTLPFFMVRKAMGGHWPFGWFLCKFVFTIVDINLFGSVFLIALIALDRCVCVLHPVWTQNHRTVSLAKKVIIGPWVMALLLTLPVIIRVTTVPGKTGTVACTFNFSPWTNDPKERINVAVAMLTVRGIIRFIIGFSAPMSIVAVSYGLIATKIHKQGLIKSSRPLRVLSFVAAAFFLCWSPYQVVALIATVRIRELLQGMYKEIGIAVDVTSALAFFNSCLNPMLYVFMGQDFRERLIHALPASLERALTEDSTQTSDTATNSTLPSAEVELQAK

Vero [10] = assay: cells; type: functional; conditions: Chlorocebus sabaeus
[11] = HEK293T cell cytotoxicity, dose response, cytotoxicity control for HIV Vif inhibitor project, cherry-picks (AID 652208); type: functional, cell-based
Vero [12] = assay: Vero cell toxicity, dose response, cytotoxicity control, plate reader, cherry-pick samples (AID 687020); type: functional, cell-based; conditions: Chlorocebus sabaeus
[13] = Late stage assay provider results from the probe development effort to identify selective inhibitors of heat shock protein 90 (HSP90): Absorbance-based cell proliferation assay in SKBR3 cells.; type: functional; conditions: SK-BR-3
[14] = Late stage assay provider results from the probe development effort to identify selective inhibitors of heat shock protein 90 (HSP90): Absorbance-based cell proliferation assay in MCF7 cells.; type: functional
[15] = T. cruzi growth inhibition in host cells, dose response, cell-based, plate reader, dry powder, set 2 (AID 652275); type: functional
[16] = BHK-21 cell cytotoxicity, cytotoxicity control for flavivirus guanylyltransferase probe project, secondary screen (AID 624078); type: functional
[17] = target: Kappa-type opioid receptor (Homo sapiens, UniProt P41145); assay: Late-stage fluorescence-based cell-based dose response assay for antagonists of kappa opioid receptor 1 (OPRK1).; type: functional
Kappa-type opioid receptor, sequence (P41145 whole entry): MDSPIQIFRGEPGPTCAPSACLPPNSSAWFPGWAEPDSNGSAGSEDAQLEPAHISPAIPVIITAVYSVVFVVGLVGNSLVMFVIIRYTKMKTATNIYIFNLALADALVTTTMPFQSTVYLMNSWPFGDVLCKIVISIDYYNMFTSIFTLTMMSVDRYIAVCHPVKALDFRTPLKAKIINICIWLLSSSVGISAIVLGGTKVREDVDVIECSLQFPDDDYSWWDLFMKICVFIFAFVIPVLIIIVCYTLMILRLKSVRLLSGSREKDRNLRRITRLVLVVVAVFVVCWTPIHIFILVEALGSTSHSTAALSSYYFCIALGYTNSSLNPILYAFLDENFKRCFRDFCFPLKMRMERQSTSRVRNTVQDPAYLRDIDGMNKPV

Mu-type opioid receptor = Mu-type opioid receptor (Homo sapiens, UniProt P35372); assay: Late-stage results from the probe development effort to identify antagonists of OPRK1: luminescence-based cell-based dose response OPRM1 counterscreen, Set 2.; type: functional
Mu-type opioid receptor, sequence (P35372 whole entry): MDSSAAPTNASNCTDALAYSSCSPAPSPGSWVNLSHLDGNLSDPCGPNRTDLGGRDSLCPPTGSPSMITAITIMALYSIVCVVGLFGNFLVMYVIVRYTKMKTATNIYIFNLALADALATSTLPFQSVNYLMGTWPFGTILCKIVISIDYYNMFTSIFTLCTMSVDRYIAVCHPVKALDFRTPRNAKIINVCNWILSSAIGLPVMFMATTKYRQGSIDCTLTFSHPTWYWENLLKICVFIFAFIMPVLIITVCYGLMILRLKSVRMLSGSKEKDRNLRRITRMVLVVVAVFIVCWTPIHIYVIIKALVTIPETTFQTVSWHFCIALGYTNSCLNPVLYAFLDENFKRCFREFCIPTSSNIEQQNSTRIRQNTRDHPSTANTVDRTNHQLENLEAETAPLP

[18] = target: Delta-type opioid receptor (Homo sapiens, UniProt P41143); assay: Late-stage results from the probe development effort to identify antagonists of OPRK1: fluorescence-based cell-based dose response OPRD1 counterscreen, Set 2.; type: functional
[19] = target: Sphingosine 1-phosphate receptor 1 (Homo sapiens, UniProt P21453); assay: Late-stage counterscreen for antagonists of kappa opioid receptor 1 (OPRK1): fluorescence-based cell-based dose response assay to identify antagonists of Sphingosine 1-Phosphate Receptor 1 (S1P1).; type: functional
Sphingosine 1-phosphate receptor 1, sequence (P21453 whole entry): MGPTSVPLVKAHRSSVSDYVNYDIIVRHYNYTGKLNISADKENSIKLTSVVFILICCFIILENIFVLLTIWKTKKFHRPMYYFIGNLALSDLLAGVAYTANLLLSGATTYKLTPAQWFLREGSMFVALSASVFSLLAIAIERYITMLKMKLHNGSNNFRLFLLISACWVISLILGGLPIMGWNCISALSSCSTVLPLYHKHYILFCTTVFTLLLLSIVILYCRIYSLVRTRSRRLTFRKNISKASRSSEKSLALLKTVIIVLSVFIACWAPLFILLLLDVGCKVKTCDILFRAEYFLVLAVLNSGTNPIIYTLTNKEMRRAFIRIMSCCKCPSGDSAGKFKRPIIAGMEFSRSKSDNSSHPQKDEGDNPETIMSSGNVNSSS

cells [20] = conditions: A549
HeLa = assay: HeLa cell cytotoxicity, dose response, cytotoxicity control for MITF activator project, CellTiter-Glo luminescence, cherry-pick samples (AID 540259); type: functional, cell-based; conditions: Homo sapiens
cells [21] = conditions: HEK293
Albumin = Albumin (Bos taurus, UniProt P02769); assay: Counterscreen for inhibitors of T-cell receptor (TCR)-CD3 interaction: Fluorescence-based biochemical high throughput dose response assay to identify inhibitors of T-cell receptor (TCR)-CD3 interaction using a TAMRA-labeled BSA probe.; type: functional
Nonstructural protein 1 = Nonstructural protein 1 (Influenza A virus, UniProt Q194T2); type: functional, Influenza A virus (A/California/07/2009(H1N1))
Nonstructural protein 1, sequence (Q194T2 whole entry): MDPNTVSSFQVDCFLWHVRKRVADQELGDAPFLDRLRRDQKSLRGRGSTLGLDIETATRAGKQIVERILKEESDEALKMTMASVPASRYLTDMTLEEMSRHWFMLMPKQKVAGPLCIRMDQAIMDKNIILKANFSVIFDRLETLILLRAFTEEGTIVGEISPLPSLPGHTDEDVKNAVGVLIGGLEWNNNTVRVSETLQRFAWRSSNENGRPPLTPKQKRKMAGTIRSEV

[22] = target: T3, Sentrin-specific protease 8 (Homo sapiens, UniProt Q96LD8); type: functional
T3 sequence (Q96LD8 whole entry): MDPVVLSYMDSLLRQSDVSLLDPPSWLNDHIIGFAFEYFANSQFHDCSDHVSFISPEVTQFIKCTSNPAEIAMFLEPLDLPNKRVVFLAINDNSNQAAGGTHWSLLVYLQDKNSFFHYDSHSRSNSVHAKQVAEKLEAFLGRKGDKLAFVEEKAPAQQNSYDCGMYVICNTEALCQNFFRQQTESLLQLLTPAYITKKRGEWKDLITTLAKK

[23] = target: T3, Sentrin-specific protease 8; type: functional; remark: listed apart in the source
Caspase-3 = target: T4, Caspase-3 (Homo sapiens, UniProt P42574); assay: Dose-response confirmation of uHTS inhibitor hits of Sentrin-Specific Protease 8 in a Caspase-3 Fluorescence assay.; type: functional
T4 sequence (P42574 whole entry): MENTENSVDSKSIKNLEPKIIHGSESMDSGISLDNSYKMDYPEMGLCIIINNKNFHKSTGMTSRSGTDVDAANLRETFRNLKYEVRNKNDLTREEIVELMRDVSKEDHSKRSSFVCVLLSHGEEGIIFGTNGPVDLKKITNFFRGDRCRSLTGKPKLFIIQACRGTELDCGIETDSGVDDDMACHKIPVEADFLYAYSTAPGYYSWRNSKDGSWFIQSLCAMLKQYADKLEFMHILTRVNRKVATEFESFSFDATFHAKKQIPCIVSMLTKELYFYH

Protein RecA = target: T5, Protein RecA (Mycobacterium tuberculosis, UniProt P9WHJ3); assay: Fluorescence Cell-Free Homogeneous Dose Retest to Identify Inhibitors of RecA-Intein Splicing Activity. [Related pubchem assays (depositor defined):AID2097, AID2223, AID489010, AID492950]; type: functional
T5 sequence (P9WHJ3 whole entry): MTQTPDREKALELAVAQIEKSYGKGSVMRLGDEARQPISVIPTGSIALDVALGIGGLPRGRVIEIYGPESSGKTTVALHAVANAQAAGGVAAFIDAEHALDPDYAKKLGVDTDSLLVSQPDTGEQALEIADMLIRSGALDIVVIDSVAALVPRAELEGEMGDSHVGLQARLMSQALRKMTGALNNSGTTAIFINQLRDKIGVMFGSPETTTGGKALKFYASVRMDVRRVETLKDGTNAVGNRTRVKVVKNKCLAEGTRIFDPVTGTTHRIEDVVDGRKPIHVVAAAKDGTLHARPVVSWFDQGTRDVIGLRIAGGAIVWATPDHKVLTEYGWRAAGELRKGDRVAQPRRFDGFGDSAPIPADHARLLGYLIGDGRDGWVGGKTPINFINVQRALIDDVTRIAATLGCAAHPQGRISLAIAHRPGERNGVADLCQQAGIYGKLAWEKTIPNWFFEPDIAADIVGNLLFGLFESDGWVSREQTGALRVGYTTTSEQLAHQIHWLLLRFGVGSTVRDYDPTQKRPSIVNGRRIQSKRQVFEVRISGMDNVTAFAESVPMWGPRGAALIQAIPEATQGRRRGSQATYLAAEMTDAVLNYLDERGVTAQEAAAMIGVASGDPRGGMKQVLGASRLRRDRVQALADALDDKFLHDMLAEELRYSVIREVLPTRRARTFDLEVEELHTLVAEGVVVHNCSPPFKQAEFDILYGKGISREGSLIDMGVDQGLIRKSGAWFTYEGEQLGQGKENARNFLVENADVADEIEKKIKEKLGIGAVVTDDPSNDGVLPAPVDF

[24] = target: T6, Replicative DNA helicase DnaB (Mycobacterium tuberculosis, UniProt P9WMR3); assay: DnaB intein splicing inhibitors, dose response, biochemical, cell-free fluorescence (AID 449749); type: functional
T6 sequence (P9WMR3 whole entry): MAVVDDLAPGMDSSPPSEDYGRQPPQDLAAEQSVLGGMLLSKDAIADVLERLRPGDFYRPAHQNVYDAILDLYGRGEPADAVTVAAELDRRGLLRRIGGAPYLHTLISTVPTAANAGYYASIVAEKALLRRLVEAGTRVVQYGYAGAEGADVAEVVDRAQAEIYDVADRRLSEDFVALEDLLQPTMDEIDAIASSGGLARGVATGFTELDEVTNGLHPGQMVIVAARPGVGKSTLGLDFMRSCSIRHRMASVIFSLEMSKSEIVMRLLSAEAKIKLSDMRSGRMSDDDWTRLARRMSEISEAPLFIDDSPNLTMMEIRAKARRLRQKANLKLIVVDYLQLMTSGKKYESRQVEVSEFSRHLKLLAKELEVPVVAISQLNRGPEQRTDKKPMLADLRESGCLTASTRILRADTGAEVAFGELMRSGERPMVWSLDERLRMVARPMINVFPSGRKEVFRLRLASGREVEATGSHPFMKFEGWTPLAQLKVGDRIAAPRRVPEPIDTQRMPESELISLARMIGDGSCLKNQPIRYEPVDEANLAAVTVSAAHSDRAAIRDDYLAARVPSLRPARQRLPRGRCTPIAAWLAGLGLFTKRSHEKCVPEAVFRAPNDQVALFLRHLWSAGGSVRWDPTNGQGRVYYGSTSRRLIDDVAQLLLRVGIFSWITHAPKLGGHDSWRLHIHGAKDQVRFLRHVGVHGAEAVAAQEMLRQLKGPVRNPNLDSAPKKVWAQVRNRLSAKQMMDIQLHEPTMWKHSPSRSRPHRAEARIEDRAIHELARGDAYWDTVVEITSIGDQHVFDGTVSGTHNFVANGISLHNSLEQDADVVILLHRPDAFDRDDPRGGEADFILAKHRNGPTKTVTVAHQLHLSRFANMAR

Protein disulfide-isomerase, sequence (P07237 whole entry): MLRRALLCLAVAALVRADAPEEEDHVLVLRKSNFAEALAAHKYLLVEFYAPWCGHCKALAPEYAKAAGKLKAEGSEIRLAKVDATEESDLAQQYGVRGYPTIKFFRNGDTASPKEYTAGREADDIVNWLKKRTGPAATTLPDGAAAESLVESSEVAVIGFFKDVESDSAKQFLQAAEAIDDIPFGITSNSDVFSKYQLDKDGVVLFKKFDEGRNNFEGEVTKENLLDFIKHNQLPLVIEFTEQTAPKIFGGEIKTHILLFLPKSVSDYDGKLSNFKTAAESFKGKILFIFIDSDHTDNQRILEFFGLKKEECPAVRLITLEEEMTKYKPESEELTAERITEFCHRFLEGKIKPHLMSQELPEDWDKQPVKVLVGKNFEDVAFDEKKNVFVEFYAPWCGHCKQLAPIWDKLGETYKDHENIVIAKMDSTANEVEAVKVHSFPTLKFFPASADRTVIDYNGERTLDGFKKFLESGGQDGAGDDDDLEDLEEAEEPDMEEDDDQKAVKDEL

CCOC(=O)C1(CCOc2ccccc2)CCN(Cc2ccc(O)cc2)CC1
AC50 [1]: 10 µM (active)

CN(CC(=O)Nc1c(Cl)cccc1Cl)C(=O)c1cccc(-n2cccc2)c1
IC50 (Protein Tat): > 100 µM (active) | AC50 (Caspase-6): 1.88 µM (active) | IC50 [2]: 34.6 µM (active) | IC50 [3]: 13.9 µM (active) | AC50 (Caspase-8): > 70 µM (inactive) | CC50 [4]: > 40 µM (active)

COc1ccc(Br)c(C(=O)Nc2nc3ccccc3[nH]2)c1
EC50 [5]: > 91.1 µM (inactive) | EC50 [6]: > 91.1 µM (inactive)

COCCCn1c(C(=O)N2CCOCC2)cc2c(=O)n3ccccc3nc21
AC50 [7]: 9.81 µM (active)

CCOC(=O)c1ccc(NC(=O)COc2ccc(S(=O)(=O)N3CCCC3)cc2)cc1
EC50 [8]: 1.37 µM (active) | EC50 [9]: 391 nM (active) and 162 nM (active)

CCC(SC1=Nc2ccccc2C2=NC(CC(C)C)C(=O)N12)C(=O)Nc1ccc2c(c1)OCO2 (stereo not given)
Ki (fMet-Leu-Phe receptor): 37.6 µM (inactive)

CCn1cc(CN2CCCC(C(=O)Nc3cccc(-c4cc5ccccc5[nH]4)c3)C2)c(C)n1 (stereo not given)
CC50 (Vero [10]): 24.9 µM (active) | AC50 [11]: 40.9 µM (active)

CC1CCC(CN2CCN=C2Nc2ccccc2)CC1 (stereo not given)
AC50 (Vero [12]): 31.6 µM (active)

CCOc1ccc(NC(=O)c2cc(=O)c(OC)c[nH]2)cc1
IC50 [13]: > 100 µM (inactive) | IC50 [14]: > 100 µM (inactive)

CC(C)N1C[C@@H](CN(C)Cc2ccc(Cl)cc2)Oc2c(NC(=O)c3cn(C)cn3)cccc2C1=O
AC50 [15]: 0.0198 µM (active)

COc1ccc(OC)c(S(=O)(=O)Nc2cc(SCC(=O)O)c(O)c3ccccc23)c1
CC50 [16]: 9.6 µM (active)

COc1ccc(OS(=O)(=O)c2sc(Br)cc2Br)cc1
IC50 [17]: 16.9 µM (inactive) | IC50 (Mu-type opioid receptor): > 50 µM (inactive) | IC50 [18]: 35.7 µM (inactive) | IC50 [19]: > 50 µM (inactive)

CC(C)(C)c1csc(N/N=C/c2ccc(O)cc2)n1
AC50 (cells [20]): > 52 µM (inactive) | AC50 (HeLa): 69.4 µM (active) | AC50 (cells [21]): > 52 µM (inactive)

Nc1nnc(CC(=O)N/N=C\c2cc([N+](=O)[O-])ccc2O)s1
IC50 (Albumin): > 94.1 µM (inactive) | IC50 (Nonstructural protein 1): 7.93 µM (active)

CCOC(=O)c1nn(-c2ccc(OC)cc2)c(=O)c2c(N)scc12
IC50 [22]: 5.63 µM (active) | IC50 [23]: 6.99 µM (active) | AC50 (Caspase-6): 34.3 µM (active) | IC50 (Caspase-3): 23 µM (active) | EC50 (Protein RecA): 1.59 µM (active) | AC50 [24]: 23.2 µM (active)

From ChEMBL document CHEMBL1201862, “PubChem BioAssay data set” (2004)
